Key:
[1] = tested on: IL-1β production from human PBMCs; assay: IL-1β ELISA in supernatants of LPS-treated human PBMCs; format: cell-based; conditions: 18 hrs
Protocol: The PBMCs were separated from peripheral blood of normal healthy human volunteers. […] Supernatant was harvested after 18 hrs and stored at −70° C. until tested. The quantity of IL-1β and TNF-α present in supernatants was estimated by ELISA (R&D systems, MN, USA) following manufacturer's instruction. A standard curve was obtained by plotting known concentrations of recombinant human IL-1β and TNF-α vs absorbance at 450 nm.
Each data point represents mean+standard deviation (SD) of 3 replicates.

[2] = Radical-scavenging activity by DPPH
Excerpt: In this example, the 2,2-diphenyl-1-picrylhydrazyl (DPPH) method was used to explore the capacity of five isolated compounds of the invention to act as free radical scavengers. The DPPH assay has been extensively used to test the free radical scavenging ability of various chemicals (Brand-williams, W. et al., Wiss. Technol. 1995, 28, 25-30; Dinis, T. C. et al., Arch. Biochem. Biophys. 1994, 315, 161-169.)
This method was adapted from that of Brand-Williams, et al. (Brand-williams, W.; Cuvelier, M. E.; Berset, C. Lebensm. Wiss. Technol. 1995, 28, 25-30.). At least seven different concentrations were prepared for each purified compound. 25 μl pure compound solution and 975 μL DPPH solution (63.4 μM) were mixed together and left in the dark for 30 min. Each sample was triplicated and the values were averaged. The absorbance of the samples was measured at 515 nm against methanol solution without DPPH as the blank reference. The absorbance was measured every 30 min until the reaction reached a plateau. The reaction kinetics were then plotted using the above data and the percentage of DPPH remaining at the steady state was obtained. IC50 values were determined by extrapolation from linear regression analysis.
DPPH, 2,2-Diphenyl-1-picrylhydrazyl (DPPH.), is a stable radical in methanol solution. In its radical form, DPPH. absorbs at 515 nm, but the absorption ceases upon reduction by an antioxidant (AH) or a radical species (R.) (Brand-williams, W.; Cuvelier, M. E.; Berset, C. Lebensm. Wiss. Technol. 1995, 28, 25-30.). The concentration of tested chemicals needed to decrease the initial DPPH. concentration by 50% (IC50) is a parameter widely used to measure the antioxidant potential (Kanner, J.; Frankel, E.; German, B.; Kinsella, J. e. J. Agric. Food Chem. 1994, 42, 64-69, Vinson, J. A.; Dabbagh, Y. A.; Serry, M. M. J. Agric. Food Chem. 1995a, 43,2800-2802.). The lower the IC50, the higher the free radical scavenging power.

[3] = tested on: NF-κB DNA binding activity; assay: Electrophoresis mobility shift assay (EMSA) of NF-κB DNA binding in RAW 264.7 nuclear extracts; format: cell-based, mouse; conditions: RAW 264.7, 2 hrs
Protocol: FIG. 6A and 6B. Inhibition of LPS induced NF-κB activation by HMP. 6A: Nuclear protein lysates of RAW 264.7 cells were prepared after 2 hrs of treatment with LPS (0.5 μg/ml) either alone or with different concentration of HMP. Six μg of nuclear protein was used in DNA binding assay and the total binding reaction was resolved in 5% nondenaturing polyacrylamide gel. The retarded bands are indicated with arrow. Data represent one of three experiments performed separately with similar results. Lane 1, control; 2, LPS (0.5 μg/ml); 3, LPS+HMP (25 μM); 4, HMP (12.5 μM). NS, non specific. 6B: Plot of integrated signal density for each lane in FIG. 6A.
RAW 264.7 cells were treated with either LPS (0.5 μg/ml) alone or with various concentration of HMP for 2 hrs. Thereafter, nuclear extracts were prepared using a modified method (Lahti et al., 2000 294:1188-1194). Briefly, cells were washed once with PBS (pH 7.2) and were suspended in hypotonic buffer A [10 mM HEPES (pH 7.6), 10 mM KCl, 0.1 mM EDTA, 1 mM DTT, 0.5 mM PMSF] for 10 min on ice, and vortexed for 10 sec. Nuclei were pelleted by centrifugation at 12,000 g for 5 minutes. […] Mobility shift of DNA due to binding of NF-κB complex was detected by Phosphor Imager-445 SI (Molecular Dynamics, Amarsham-Pharmacia, NJ, USA).

COc1cc(CC/C=C/C(=O)CCc2ccccc2)ccc1O [AO-4, 7-(4″-hydroxy-3″-methoxyphenyl)-1-phenyl-hept-4-en-3-one]
IL-1β ([1]; HMP 6.25 μM + LPS (10 ng/ml)): 339.21 ± 10.53 pg/mL
IL-1β ([1]; HMP 6.25 μM alone): 22.12 ± 3.33 pg/mL
IL-1β ([1]; HMP 12.5 μM + LPS (10 ng/ml)): 113.43 ± 3.81 pg/mL
IL-1β ([1]; HMP 12.5 μM alone): 24.45 ± 1.03 pg/mL
IL-1β ([1]; HMP 25 μM + LPS (10 ng/ml)): 77.27 ± 4.6 pg/mL
IL-1β ([1]; HMP 25 μM alone): 23.28 ± 1.41 pg/mL
LPS induced secretion of IL-1β (in words) ([1]; HMP 6.25-25 μM + LPS): significantly in dose dependent fashion
IC50 ([2]; DPPH 63.4 μM in methanol, absorbance at 515 nm, steady state, read-out: IC50 (μM) of Diarylheptanoids in Scavenging DPPH Free Radicals): 13.7 µM
free radical scavenging, DPPH data (in words) ([2]; DPPH assay): very good free radical scavengers
LPS induced NF-κB DNA binding activity (EMSA, in words) ([3]; HMP 25 μM + LPS (0.5 μg/ml)): marked inhibition
relative levels of NF-κB DNA binding activity (EMSA, in words) ([3]; HMP 12.5 and 25 μM + LPS (0.5 μg/ml)): less in comparison to LPS alone

Source: patent US20050215635A1, “Diarylheptanoid compounds and uses thereof” (priority 2004, published 2005)
